Patent publication US8377884B2, “Variants of C-type natriuretic peptides” (Biomarin Pharmaceutical Inc., priority 2007, dated 2013)
Read-outs that look alike come from different tables or passages of the source. Bridge positions count the residues as written; N and C are the ends. Square brackets hold non-standard residues; d marks the D form. Ends that are not written are not given here. Peptide text beside a SMILES is read from it. PEO12 = monodispersed PEO, 0.6 kDa; tBuAla = CC(C)(C)C[C@H](N)C(=O)O

Molecular target: T1, NPR-B (Mus musculus, UniProt Q6VVW5)
T1 construct: Murine NIH3T3 cells express endogenously the CNP signaling receptor, NPR-B; endogenous in cells; host or cells: NIH3T3 (murine fibroblasts)
T1 sequence (Q6VVW5 17-1047): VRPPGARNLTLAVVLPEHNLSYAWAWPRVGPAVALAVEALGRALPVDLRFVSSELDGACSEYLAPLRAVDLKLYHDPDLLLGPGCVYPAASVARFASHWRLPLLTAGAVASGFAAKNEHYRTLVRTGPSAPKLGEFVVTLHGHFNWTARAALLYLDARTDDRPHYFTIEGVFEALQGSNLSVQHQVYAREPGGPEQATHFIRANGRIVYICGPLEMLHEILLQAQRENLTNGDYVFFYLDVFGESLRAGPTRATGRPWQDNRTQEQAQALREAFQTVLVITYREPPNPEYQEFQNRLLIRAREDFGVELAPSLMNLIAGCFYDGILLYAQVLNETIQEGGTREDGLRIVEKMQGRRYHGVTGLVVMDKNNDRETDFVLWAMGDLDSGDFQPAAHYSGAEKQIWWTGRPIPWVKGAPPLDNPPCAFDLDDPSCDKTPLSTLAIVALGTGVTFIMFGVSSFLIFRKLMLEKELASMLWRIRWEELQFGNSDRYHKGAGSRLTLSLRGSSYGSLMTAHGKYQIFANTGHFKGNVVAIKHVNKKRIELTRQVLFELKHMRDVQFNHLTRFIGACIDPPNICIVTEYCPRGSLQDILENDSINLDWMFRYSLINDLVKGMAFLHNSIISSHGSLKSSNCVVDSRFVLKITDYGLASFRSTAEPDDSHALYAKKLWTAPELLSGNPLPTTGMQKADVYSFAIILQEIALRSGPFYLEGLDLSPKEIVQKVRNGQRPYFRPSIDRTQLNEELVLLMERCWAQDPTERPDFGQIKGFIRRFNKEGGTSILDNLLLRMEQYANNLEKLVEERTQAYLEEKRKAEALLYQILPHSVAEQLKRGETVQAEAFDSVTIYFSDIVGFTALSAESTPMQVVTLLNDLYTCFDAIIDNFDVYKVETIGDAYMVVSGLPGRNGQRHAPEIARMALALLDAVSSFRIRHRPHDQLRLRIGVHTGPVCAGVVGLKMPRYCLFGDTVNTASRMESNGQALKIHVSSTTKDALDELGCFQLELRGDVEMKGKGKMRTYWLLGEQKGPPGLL
Experiment: Stimulation of cGMP production in NIH3T3 cells
Type: cell-based, Murine
Details: for cGMP response relative to 1 uM CNP22 (%) at 0.01 µM: read-out: cGMP Response rel. to 1 uM CNP22, 10 nM; for cGMP response relative to 1 uM CNP22 (%) at 1 µM: read-out: cGMP Response rel. to 1 uM CNP22, 1 uM

[1] = NIH3T3 cells, 10 nM natriuretic peptide, normalized to cell number and cGMP production with 1 uM wtCNP22
[2] = NIH3T3 cells, 1 uM natriuretic peptide, normalized to cell number and cGMP production with 1 uM wtCNP22

Compound: CC[C@H](C)[C@@H]1NC(=O)[C@H](CCCNC(=N)N)NC(=O)[C@H](CC(=O)O)NC(=O)[C@H](CC(C)C)NC(=O)[C@H](CCCCN)NC(=O)[C@H](CC(C)C)NC(=O)CNC(=O)[C@H](Cc2ccccc2)NC(=O)[C@@H](NC(=O)CNC(=O)[C@H](CCCNC(=N)N)NC(=O)[C@H](CO)NC(=O)[C@H](CC(C)C)NC(=O)CN)CSSC[C@@H](C(=O)O)NC(=O)CNC(=O)[C@H](C(C)C)NC(=O)CNC(=O)[C@H](CO)NC(=O)[C@H](CCSC)NC(=O)[C@H](CO)NC(=O)CNC1=O [AJ] (H-GLSRGCFGLKLDRIGSMSGVGC-OH; disulfide 6-22 (inferred); N-terminus and C-terminus assumed)
- cGMP response relative to 1 uM CNP22 (%) at 0.01 µM [1]: 0.2%
- cGMP response relative to 1 uM CNP22 (%) at 1 µM [2]: 8%

Compound: CC[C@H](C)[C@@H]1NC(=O)[C@H](CCCNC(=N)N)NC(=O)[C@H](CC(=O)O)NC(=O)[C@H](CC(C)C)NC(=O)[C@H](CCCCN)NC(=O)[C@H](CC(C)C)NC(=O)CNC(=O)[C@H](Cc2ccccc2)NC(=O)[C@@H](NC(=O)CNC(=O)[C@H](CCCCN)NC(=O)[C@H](CO)NC(=O)[C@H](CC(C)C)NC(=O)CNC(=O)[C@H](CCC(N)=O)NC(=O)[C@H](CCC(N)=O)NC(=O)[C@H](CC(N)=O)NC(=O)[C@H](C)NC(=O)CNC(=O)[C@H](CCCCN)NC(=O)[C@H](Cc2ccc(O)cc2)NC(=O)[C@H](CCCCN)NC(=O)[C@H](CCCNC(=N)N)NC(=O)[C@H](C)NC(=O)[C@H](CC(N)=O)NC(=O)[C@@H]2CCCN2C(=O)[C@H](Cc2c[nH]cn2)NC(=O)[C@H](CCC(=O)O)NC(=O)[C@H](CCC(N)=O)NC(=O)CN)CSSC[C@@H](C(=O)O)NC(=O)CNC(=O)[C@H](CC(C)C)NC(=O)CNC(=O)[C@H](CO)NC(=O)[C@H](CCSC)NC(=O)[C@H](CO)NC(=O)CNC1=O [CU] (H-GQEHPNARKYKGANQQGLSKGCFGLKLDRIGSMSGLGC-OH; disulfide 22-38 (inferred); N-terminus and C-terminus assumed)
- cGMP response relative to 1 uM CNP22 (%) at 0.01 µM [1]: 9%
- cGMP response relative to 1 uM CNP22 (%) at 1 µM [2]: 57%

Compound: CC[C@H](C)[C@@H]1NC(=O)[C@H](CCCNC(=N)N)NC(=O)[C@H](CC(=O)O)NC(=O)[C@H](CC(C)C)NC(=O)[C@H](CCCCN)NC(=O)[C@H]([C@@H](C)O)NC(=O)CNC(=O)[C@H](Cc2ccccc2)NC(=O)[C@@H](NC(=O)CNC(=O)[C@H](CCCNC(=N)N)NC(=O)[C@H](CO)NC(=O)[C@H](CC(C)C)NC(=O)CN)CSSC[C@@H](C(=O)O)NC(=O)CNC(=O)[C@H](CC(C)C)NC(=O)CNC(=O)[C@H](CO)NC(=O)[C@H](CCSC)NC(=O)[C@H](CO)NC(=O)CNC1=O [AD] (H-GLSRGCFGTKLDRIGSMSGLGC-OH; disulfide 6-22)
- cGMP response relative to 1 uM CNP22 (%) at 0.01 µM [1]: 4%
- cGMP response relative to 1 uM CNP22 (%) at 1 µM [2]: 68%

Compound: CC[C@H](C)[C@@H]1NC(=O)[C@H](CCCNC(=N)N)NC(=O)[C@H](CC(=O)O)NC(=O)[C@H](CC(C)C)NC(=O)[C@H](CCCCN)NC(=O)[C@H](CC(C)C)NC(=O)CNC(=O)[C@H](Cc2ccccc2)NC(=O)[C@@H](NC(=O)CNC(=O)[C@H](CCCNC(=N)N)NC(=O)[C@H](CO)NC(=O)[C@H](CC(C)C)NC(=O)CN)CSSC[C@@H](C(=O)O)NC(=O)CNC(=O)[C@H](CC(C)(C)C)NC(=O)CNC(=O)[C@H](CO)NC(=O)[C@H](CCSC)NC(=O)[C@H](CO)NC(=O)CNC1=O [AK] (H-GLSRGCFGLKLDRIGSMSG[tBuAla]GC-OH; disulfide 6-22 (inferred); N-terminus and C-terminus assumed)
- cGMP response relative to 1 uM CNP22 (%) at 0.01 µM [1]: 1%
- cGMP response relative to 1 uM CNP22 (%) at 1 µM [2]: 21%

Compound: PEO12-CNP22, K4R: CNP22, K4R conjugated at the N-terminus to PEO12 (PEO12-GLSRGCFGLKLDRIGSMSGLGC; disulfide 6-22 (inferred); UniProt P23582 105-126, looked up, variant K4R)
- cGMP Response rel. to 1 uM CNP22, 10 nM [1]: 13
- cGMP Response rel. to 1 uM CNP22, 1 uM [2]: 44

Compound: CC[C@H](C)[C@@H]1NC(=O)[C@H](CCCNC(=N)N)NC(=O)[C@H](CC(=O)O)NC(=O)[C@H](CC(C)C)NC(=O)[C@H](CCCCN)NC(=O)[C@H](CC(C)C)NC(=O)CNC(=O)[C@H](Cc2ccccc2)NC(=O)[C@@H](NC(=O)CNC(=O)[C@H](CCCNC(=N)N)NC(=O)[C@H](CO)NC(=O)[C@H](CC(C)C)NC(=O)CN)CSSC[C@@H](C(=O)O)NC(=O)CNC(=O)[C@H](CC(C)C)NC(=O)CNC(=O)[C@H](CO)NC(=O)[C@H](C(C)C)NC(=O)[C@H](CO)NC(=O)CNC1=O [AG] (H-GLSRGCFGLKLDRIGSVSGLGC-OH; disulfide 6-22 (inferred); N-terminus and C-terminus assumed)
- cGMP response relative to 1 uM CNP22 (%) at 0.01 µM (NIH3T3, […]): 10%
- cGMP response relative to 1 uM CNP22 (%) at 1 µM (NIH3T3, […]): 65%

Compound: CC[C@H](C)[C@@H]1NC(=O)[C@H](CCCNC(=N)N)NC(=O)[C@H](CC(=O)O)NC(=O)[C@H](CC(C)C)NC(=O)[C@H](CCCCN)NC(=O)[C@H](CC(C)C)NC(=O)[C@H](C(C)C)NC(=O)[C@H](Cc2ccccc2)NC(=O)[C@@H](NC(=O)CNC(=O)[C@H](CCCNC(=N)N)NC(=O)[C@H](CO)NC(=O)[C@H](CC(C)C)NC(=O)CN)CSSC[C@@H](C(=O)O)NC(=O)CNC(=O)[C@H](CC(C)C)NC(=O)CNC(=O)[C@H](CO)NC(=O)[C@H](CCSC)NC(=O)[C@H](CO)NC(=O)CNC1=O [AA] (H-GLSRGCFVLKLDRIGSMSGLGC-OH; disulfide 6-22 (inferred); N-terminus and C-terminus assumed)
- cGMP response relative to 1 uM CNP22 (%) at 0.01 µM [1]: 3%
- cGMP response relative to 1 uM CNP22 (%) at 1 µM [2]: 25%

Compound: CC[C@H](C)[C@@H]1NC(=O)[C@H](CCCNC(=N)N)NC(=O)[C@H](CC(=O)O)NC(=O)[C@H](CC(C)C)NC(=O)[C@H](CCCCN)NC(=O)[C@H](CC(C)C)NC(=O)CNC(=O)[C@H](Cc2ccccc2)NC(=O)[C@@H](N)CSSC[C@@H](C(=O)O)NC(=O)CNC(=O)[C@H](CC(C)C)NC(=O)CNC(=O)[C@H](CO)NC(=O)[C@H](CCSC)NC(=O)[C@H](CO)NC(=O)CNC1=O [AX] (H-CFGLKLDRIGSMSGLGC-OH; disulfide 1-17 (inferred); N-terminus and C-terminus assumed)
- cGMP response relative to 1 uM CNP22 (%) at 0.01 µM [1]: 18%
- cGMP response relative to 1 uM CNP22 (%) at 1 µM [2]: 69%

Compound: CC[C@H](C)[C@@H]1NC(=O)[C@H](CCCNC(=N)N)NC(=O)[C@H](CC(=O)O)NC(=O)[C@H](CC(C)C)NC(=O)[C@H](CCCCN)NC(=O)[C@H](CC(C)C)NC(=O)CNC(=O)[C@H](Cc2ccccc2)NC(=O)[C@@H](NC(=O)CNC(=O)[C@H](CCCCN)NC(=O)[C@H](CO)NC(=O)[C@H](CC(C)C)NC(=O)CNC(=O)[C@H](CCCCN)NC(=O)[C@H](CCC(N)=O)NC(=O)[C@H](CC(N)=O)NC(=O)[C@H](C)NC(=O)CNC(=O)[C@H](CCCCN)NC(=O)[C@H](Cc2ccc(O)cc2)NC(=O)[C@H](CCCCN)NC(=O)[C@H](CCCNC(=N)N)NC(=O)[C@H](C)NC(=O)[C@H](CC(N)=O)NC(=O)[C@@H]2CCCN2C(=O)[C@H](Cc2c[nH]cn2)NC(=O)[C@H](CCC(=O)O)NC(=O)[C@H](CCC(N)=O)NC(=O)CN)CSSC[C@@H](C(=O)O)NC(=O)CNC(=O)[C@H](CC(C)C)NC(=O)CNC(=O)[C@H](CO)NC(=O)[C@H](CCSC)NC(=O)[C@H](CO)NC(=O)CNC1=O [CT] (H-GQEHPNARKYKGANQKGLSKGCFGLKLDRIGSMSGLGC-OH; disulfide 22-38 (inferred); N-terminus and C-terminus assumed)
- cGMP response relative to 1 uM CNP22 (%) at 0.01 µM [1]: 60%
- cGMP response relative to 1 uM CNP22 (%) at 1 µM [2]: 121%

Compound: CC[C@H](C)[C@@H]1NC(=O)[C@H](CCCNC(=N)N)NC(=O)[C@H](CC(=O)O)NC(=O)[C@H](CC(C)C)NC(=O)[C@H](CCCCN)NC(=O)[C@H](CC(C)C)NC(=O)CNC(=O)[C@H](Cc2ccccc2)NC(=O)[C@@H](NC(=O)CNC(=O)[C@H](CCCNC(=N)N)NC(=O)[C@H](CO)NC(=O)[C@H](CC(C)C)NC(=O)CNC(=O)[C@H](CCC(N)=O)NC(=O)[C@H](CCC(N)=O)NC(=O)[C@H](CC(N)=O)NC(=O)[C@H](C)NC(=O)CN)CSSC[C@@H](C(=O)O)NC(=O)CNC(=O)[C@H](CC(C)C)NC(=O)CNC(=O)[C@H](CO)NC(=O)[C@H](CCSC)NC(=O)[C@H](CO)NC(=O)CNC1=O [CH] (H-GANQQGLSRGCFGLKLDRIGSMSGLGC-OH; disulfide 11-27 (inferred); N-terminus and C-terminus assumed)
- cGMP response relative to 1 uM CNP22 (%) at 0.01 µM [1]: 44 ± 8%
- cGMP response relative to 1 uM CNP22 (%) at 1 µM [2]: 95 ± 11%
